Measurements from US20240252694A1, “CONJUGATES COMPRISING COVALENT BINDERS FOR TARGETING INTRACELLULAR KRAS G12C PROTEINS” (RayzeBio, Inc., priority 2021, published 2024).

Tests used:
[1] = target: T1, KRAS (G12C) (Homo sapiens, UniProt P01116, G12C); test: KRAS G12C Nucleotide Exchange Assay (fixed GTP concentration); assay type: biochemical
T1 construct: purchased BPS Bioscience 79859
Protocol: A KRAS (G12C) Nucleotide Exchange Assay kit was used to evaluate compound antagonistic binding. The assay kit (BPS Bioscience. Catalog #79859) utilizes KRAS (G12C) labeled with BODIPY-GDP to determine if compounds can affect the nucleotide exchange (GDP to GTP) in KRAS signaling, Compounds were typically characterized using both protocols: fixed GTP concentrations and fixed inhibitor concentrations.
All reagents were prepared following manufacturer's protocol. 5 μL BODIPY-GDP and 10 μL of KRAS buffer were added to each well. A 3-fold serial dilution of compound in 5% DMSO was prepared. Typically, compounds were tested in the range of 0 μM to 50 μM, but the range could be modified depending on the characterization needs. 5 μL of diluted compound was added to the wells and the plate was centrifuged briefly to ensure all components were mixed before incubation at ambient temperature. After incubation for 2 hours, 10 μM GTP and 25 mM EDTA were mixed at a 1:1 ratio and 5 μL was added to the wells. The plate was then incubated for 1 hour at ambient temperature. After incubation, fluorescence was measured at […].
Data was analyzed by plotting fluorescence vs GTP concentration for control wells and compound wells.

[2] = system: human ERK1 dually phosphorylated at T202/Y204 and ERK2; test: Phosphorylated ERK1/ERK2 ELISA; assay type: cell-based; conditions: phosphorylated ERK in cell lysates after treatment with compounds; sandwich ELISA; cell line not stated
Protocol: An ERK phosphorylation ELISA kit was used to characterize compounds for KRAS-based cell activity. The sandwich ELISA (RnD Systems. Catalog #DYC1018B) measures human ERK1 that is dually phosphorylated at T202/Y204 and ERK2. Cell lysates from cells before and after treatment with compounds were prepared using kit manufacturer protocols.
All reagents were prepared following the kit's protocol. The wells of a 96-well microtiter plate were coated with 100 μL of 8.0 μg/mL of capture antibody in PBS. The plate was sealed and left to incubate overnight at ambient temperature. After incubation, the wells were washed with 400 μL of Wash Buffer for a total of 3 washes. Wells were then blocked by adding 300 μL of Block Buffer to each well and incubated at ambient temperature for 1-2 hours. After removal of the Block Buffer by aspirating and washing, 100 μL of standards and samples were added to the plate in duplicates and incubated for 2 hours at ambient temperature. The aspiration and wash steps were repeated to remove unbound standard and samples and 100 μL of 400 ng/mL detection antibody was applied to each well. After 2 hours at ambient temperature, detection antibody was removed by washing and 100 μL of Streptavidin-HRP was added to each well. Incubation of Streptavidin-HRP was at ambient temperature for 20 minutes, after which Streptavidin-HRP was removed by washing, 100 μL of Substrate Solution was added to each well and incubated for 20 minutes before 50 μL of Stop Solution was added to each well.
The optical density of each well was immediately analyzed at 450 nm with a wavelength correction at 540 nm. The standards were plotted by averaging the optical density for each replicate and fitted with a four-parameter logistic curve fit. Concentrations of phosphorylated ERK in cell lysate samples were determined by extrapolation from the standard curve and then adjusted for any dilution factors.

T1 sequence (P01116 1-188 isoform P01116-2 G12C): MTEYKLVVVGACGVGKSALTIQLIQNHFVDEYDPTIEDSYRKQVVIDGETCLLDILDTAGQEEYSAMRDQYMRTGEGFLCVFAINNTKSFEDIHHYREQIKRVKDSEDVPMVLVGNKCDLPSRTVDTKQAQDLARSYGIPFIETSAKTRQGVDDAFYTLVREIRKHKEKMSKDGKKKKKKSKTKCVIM

For C=CC(=O)N1CCN(c2nc(OC[C@@H]3CCCN3CCCCNC(=O)CN3CCN4CCN5CCN(CC3)CC(=O)[O][Lu]([O]C(=O)C4)[O]C(=O)C5)nc3c2CCN(c2cccc4cccc(Cl)c24)C3)C[C@@H]1CC#N [Lu-CHL-003, N-[4-[(2S)-2-[[7-(8-chloro-1-naphthyl)-4-[(3S)-3-(cyanomethyl)-4-prop-2-enoyl-piperazin-1-yl]-6,8-dihydro-5Hpyrido[3,4-d]pyrimidin-2-yl]oxymethyl]pyrrolidin-1-yl]butyl]-2-(3,16,19-trioxo-2,17,18-trioxa-5,8,11,14-tetrazaλ3-lutetatricyclo[9.6.3,25,14]docosan-8-yl)acetamide], the IC50 [1] was < 1000 nM and the IC50 [2] was 1000 to 10000 nM.
